{
  "source": "patent US20210023065A1",
  "about": "“AMPHIPHILIC THIOL COMPOUNDS AND USES THEREOF” (THE REGENTS OF THE UNIVERSITY OF CALIFORNIA, priority 2018, published 2021)",
  "assay_type_in_all_cases": "cell-based",
  "key": {"CD44": {"biological_target": "T1, CD44 (Homo sapiens, UniProt P16070)", "T1 construct": "we detected the palmitoylation levels of eight known palmitoylated proteins after treatment with 1; endogenous in cells; host or cells: HeLa", "T1 sequence (P16070 21-742)": "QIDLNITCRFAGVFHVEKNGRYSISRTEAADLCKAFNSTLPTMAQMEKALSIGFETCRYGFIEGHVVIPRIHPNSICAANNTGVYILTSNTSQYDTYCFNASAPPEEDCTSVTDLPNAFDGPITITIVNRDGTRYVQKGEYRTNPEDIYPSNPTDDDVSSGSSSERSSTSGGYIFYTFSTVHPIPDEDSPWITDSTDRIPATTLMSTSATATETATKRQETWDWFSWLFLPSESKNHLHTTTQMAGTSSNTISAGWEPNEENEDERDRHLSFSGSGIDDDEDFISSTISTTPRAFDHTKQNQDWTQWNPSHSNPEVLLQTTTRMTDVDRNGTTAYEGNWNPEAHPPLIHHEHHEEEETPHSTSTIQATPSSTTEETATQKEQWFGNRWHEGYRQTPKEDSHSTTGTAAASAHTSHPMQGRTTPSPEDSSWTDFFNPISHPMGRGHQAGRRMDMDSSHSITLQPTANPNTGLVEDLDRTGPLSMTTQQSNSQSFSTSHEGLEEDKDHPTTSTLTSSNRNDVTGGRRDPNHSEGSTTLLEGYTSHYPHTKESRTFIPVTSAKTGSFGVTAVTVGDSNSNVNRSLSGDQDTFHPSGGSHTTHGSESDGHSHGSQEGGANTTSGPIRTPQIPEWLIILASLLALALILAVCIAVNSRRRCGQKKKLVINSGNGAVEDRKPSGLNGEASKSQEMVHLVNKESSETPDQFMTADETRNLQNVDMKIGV", "assay": "Acyl resin-assisted capture detection of CD44 palmitoylation in HeLa cells", "conditions": "1.25 μmol/10^7 cells, relative to vehicle", "method": "(§1) HeLa cells were grown to confluency in 10 cm plates. Stock solutions of compounds were prepared in DMSO as before and diluted to the final indicated concentration in 5.5 mL of OptiMEM media before adding to cells. Cells were incubated at 37° C. for 20 min and then media removed and 3 mL of HBSS added to each plate. Cells were detached using a cell scraper, pelleted by centrifugation at 1,000 rcf for 5 min and the pellet processed using a CAPTUREome S-Palmitoylated Protein Kit (Badrilla, UK) according to the manufacturer's protocol. Samples were resolved by electrophoresis using 4-20% SDS-polyacrylamide gels (Bio-Rad) under denaturing and reducing conditions. Proteins were then electrotransferred to a PVDF membrane (Bio-Rad). […]\n(§2) Assays were performed in 3 biological replicates. […] Western blots were analyzed using ImageJ^1. […]"}, "EGFP-HRas": {"biological_target": "T2, EGFP-HRas (Homo sapiens, UniProt P01112)", "T2 construct": "host or cells: HeLa", "T2 sequence (P01112 1-186 limits assumed)": "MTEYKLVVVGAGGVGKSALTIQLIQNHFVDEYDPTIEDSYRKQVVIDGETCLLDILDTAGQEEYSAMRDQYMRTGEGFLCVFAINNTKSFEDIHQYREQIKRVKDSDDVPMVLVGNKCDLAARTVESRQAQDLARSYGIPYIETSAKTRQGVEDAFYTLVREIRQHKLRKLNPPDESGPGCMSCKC", "assay": "Live-cell imaging of EGFP-HRas localization in HeLa cells", "method": "Imaging was performed on an Axio Observer Z1 inverted microscope (Carl Zeiss Microscopy Gmb, Germany) with Yokogawa CSU-X1 spinning disk confocal unit using a 63×, 1.4 NA oil immersion or 20×, 0.8 NA objective to an ORCA-Flash4.0 V2 Digital CMOS camera (Hamamatsu, Japan). For live cell imaging, an incubation chamber with temperature and CO2 controllers (World Precision Instruments) was utilized. Fluorophores were excited with s diode laser (488 nm; 30 mW). Images were acquired using Zen Blue software (Carl Zeiss) and processed using Image J.^1\nHeLa cells were plated at 40,000 cells/well in an 8-well Lab-Tek chamber slide (ThermoFisher) and allowed to adhere overnight. Cells were transfected with mEGFP-HRas or mEGFP-KRas4b using Lipofectamine 2000 (ThermoFisher) according to the manufacturer's protocol. 50 mM stocks of compounds 1 and 2 were prepared by dissolving the solid compound in DMSO containing 100 mM tris(2-S 3 carboxyethyl)phosphine hydrochloride (TCEP) as a preservative. From these stocks, a solution of 200 μM [1 or 2] (with 400 μM TCEP), or 400 μM TCEP was prepared in OptiMEM media. Before imaging, cells were exchanged into OptiMEM media. The diluted solutions were added to the indicated final concentration within individual wells of the chamber slide and cells imaged while maintaining 37° C., 5% CO2 in the incubation chamber. Images were acquired in 6 different locations across a minimum of 2 independent experiments. […] An unpaired t test was performed to determine the significance of the means before and after treatment."}, "lyric/metadherin": {"biological_target": "T3, lyric/metadherin (Homo sapiens, UniProt Q86UE4)", "T3 construct": "we detected the palmitoylation levels of eight known palmitoylated proteins after treatment with 1; endogenous in cells; host or cells: HeLa", "T3 sequence (Q86UE4 1-582)": "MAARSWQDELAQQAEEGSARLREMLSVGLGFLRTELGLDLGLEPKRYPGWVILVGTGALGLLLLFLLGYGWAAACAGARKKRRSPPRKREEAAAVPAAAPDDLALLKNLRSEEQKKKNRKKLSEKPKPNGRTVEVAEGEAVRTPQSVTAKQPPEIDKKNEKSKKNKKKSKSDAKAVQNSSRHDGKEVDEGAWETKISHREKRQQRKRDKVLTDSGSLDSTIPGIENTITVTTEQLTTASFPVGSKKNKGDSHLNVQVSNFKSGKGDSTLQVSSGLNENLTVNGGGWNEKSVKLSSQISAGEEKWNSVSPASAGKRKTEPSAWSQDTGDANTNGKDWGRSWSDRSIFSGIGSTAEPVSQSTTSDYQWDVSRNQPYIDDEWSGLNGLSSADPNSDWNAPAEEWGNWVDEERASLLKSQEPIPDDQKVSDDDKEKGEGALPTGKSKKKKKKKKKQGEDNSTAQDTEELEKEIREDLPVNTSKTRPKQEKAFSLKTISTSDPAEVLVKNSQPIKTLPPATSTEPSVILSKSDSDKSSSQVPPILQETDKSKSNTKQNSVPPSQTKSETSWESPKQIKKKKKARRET", "assay": "Acyl resin-assisted capture detection of lyric/metadherin palmitoylation in HeLa cells", "conditions": "1.25 μmol/10^7 cells, relative to vehicle", "method": "as §1, §2"}, "flotillin-1": {"biological_target": "T4, flotillin-1 (Homo sapiens, UniProt O75955)", "T4 construct": "we detected the palmitoylation levels of eight known palmitoylated proteins after treatment with 1; endogenous in cells; host or cells: HeLa", "T4 sequence (O75955 1-427)": "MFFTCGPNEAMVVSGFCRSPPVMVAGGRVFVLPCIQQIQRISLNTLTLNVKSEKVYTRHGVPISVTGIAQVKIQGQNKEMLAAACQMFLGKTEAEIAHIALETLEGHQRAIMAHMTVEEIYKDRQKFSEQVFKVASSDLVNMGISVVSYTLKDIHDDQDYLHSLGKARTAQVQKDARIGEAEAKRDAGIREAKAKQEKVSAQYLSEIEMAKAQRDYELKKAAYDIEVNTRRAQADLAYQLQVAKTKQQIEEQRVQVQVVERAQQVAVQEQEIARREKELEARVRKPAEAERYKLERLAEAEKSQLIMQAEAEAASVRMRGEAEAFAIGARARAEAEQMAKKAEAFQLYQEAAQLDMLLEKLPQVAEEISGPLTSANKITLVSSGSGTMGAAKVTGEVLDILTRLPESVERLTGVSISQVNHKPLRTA", "assay": "Acyl resin-assisted capture detection of flotillin-1 palmitoylation in HeLa cells", "conditions": "1.25 μmol/10^7 cells, relative to vehicle", "method": "as §1, §2"}},
  "data": [
    {"smiles": "CCCCCCCCNC(=O)[C@@H](N)CS", "note": "[compound 1, H2N-L-Cys-Oct]", "values": [
      {"measurement": "reduction of palmitoylation level of CD44", "setting": "CD44", "value": "> 80", "unit": "%"},
      {"measurement": "change in plasma membrane protein localization, statistical analysis of several hundred cells", "setting": "EGFP-HRas; EGFP-HRas transfected HeLa cells, before vs after treatment", "value": "significant change in plasma membrane protein localization"},
      {"measurement": "EGFP-HRas localization at the plasma membrane (fluorescence)", "setting": "EGFP-HRas; HeLa cells, 1.25 μmol/10^7 cells, 20 min", "value": "EGFP-HRas localization at the plasma membrane decreased"},
      {"measurement": "reduction of palmitoylation level of lyric/metadherin", "setting": "lyric/metadherin", "value": "> 80", "unit": "%"},
      {"measurement": "reduction of palmitoylation level of flotillin-1", "setting": "flotillin-1", "value": "19-40%"}
    ]}
  ]
}
